Measurements from article PMC11775380, “Discovery of Novel Nav1.7-Selective Inhibitors with the 1H-Indole-3-Propionamide Scaffold for Effective Pain Relief” (Research, 2025).

Tests used:
[1] = test system: CFA inflammatory pain model of mice; experiment: CFA-induced inflammatory (chronic) pain model; type: in vivo, ICR mice; conditions: for Paw withdrawal threshold (PWT) at 1.5 h: 1.5 h post drug, 24 h after CFA
Description: The chronic pain model of mice was often used to simulate persistent pain in humans. In this model, chronic persistent pain was induced by injecting complete Freund’s adjuvant (CFA) into the right hind foot of mice. […] The chronic analgesic potential of WN2-R was evaluated using both i.g. and i.m. methods (n = 4). When administered by i.g., the PWTs of the WN2-R group and the PF-05089771 group reached their peak at 1.5 and 1 h after administration, respectively, and subsequently declined to the same level as the saline group at 2.5 h (Fig. 6D). […] When administered i.m., both the WN2-R and PF-05089771 groups reached peak PWTs at 1.5 h, and declined to the saline group level at 3 h (Fig. 6K). […] The mechanical allodynia of ICR mice (2 male and 2 female) was assessed prior to model construction using von Frey fibers according to the up–down method. Mice with paw withdraw thresholds (PWTs) remarkably deviating from the mean value were excluded from further experiments. Subsequently, 15 μl of CFA was unilaterally injected into the intraplantar surface of the right hind paw of each mice. After 24 h, the PWTs of the mice were assessed. During the i.g. administration of drugs or saline, PWTs were measured 0, 0.5, 1, 1.5, 2, and 2.5 h post drugs/saline administration. Similarly, during i.m. administration, PWTs were measured at 0, 0.5, 1, 1.5, 2, 2.5, and 3 h post drugs/saline administration.

hNav1.8 = target: T1, hNav1.8 (Homo sapiens, UniProt Q9Y5Y9); experiment: Subtype selectivity, patch clamp (ND7/23 cells); type: cell-based; conditions: 1 μM
T1 construct: expressed in transfected cells; host or cells: ND7/23
Description: VGSC inhibitors required credible subtype selectivity to void side effects caused by binding to nontarget subtypes. At a concentration of 1 μM, the inhibitory rates of WN2-R on hNav1.2, hNav1.3, hNav1.4, hNav1.5, mNav1.6, and hNav1.8 were determined (n = 3 to 6, Fig. 7A). […] To further evaluate the drug safety profile, high-dose acute toxicity experiments were conducted. Mice were administered a high dose of 30 mg/kg WN2-R through i.p. administration. The rotarod test, forced-swim test, and open field test were used to explore the effect of high-dose WN2-R on the motor ability of mice (n = 4). The rotarod test evaluated the drug's effect on motor coordination, the forced-swim test examined its impact on the overall motor system, and the open field test assessed the drug's influence on the motor and nervous systems. […]
Whole-cell patch-clamp recordings were conducted at 25 ± 2 °C, utilizing an EPC 10USB patch-clamp amplifier (HEKA Elektronik, Lambrecht, Germany). […] IC50 values were determined in HEK293T or ND7/23 cell lines by voltage clamping at −80 mV, followed by stepping to the V1/2 of inactivation for 8 s to facilitate compound binding.

[2] = test system: SNI neuropathic pain model in mice; experiment: Spared nerve injury (SNI) neuropathic pain model; type: in vivo, C57 mice
From the text: Peripheral nerve injury models were developed to investigate the mechanisms of neuropathic pain. One such model, the spared nerve injury (SNI) neuropathic pain model in mice, involved ligating and transecting the […] and tibial nerves within the […] nerve, while leaving the sural nerve untouched. […] To evaluate the neuroanalgesic potential of WN2-R in this model, both i.g. and i.m. routes were used to evaluate the neuroanalgesic effect of WN2-R in this model (n = 5). […] In contrast, PF-05089771 reached its peak at 1 h (PWTs = 1.08 g) but then rapidly lost its efficacy, resembling the saline control group after 1 h. Throughout the experiment, the PWTs of the WN2-R group remained consistently higher than that of the PF-05089771 group (Fig. 6F and G). […] Subsequently, the efficacy of both drugs gradually declined, converging with the saline group after 3 h. Throughout the entire dosing period, the PWTs of the WN2-R group were slightly higher than that of the PF-05089771 group (Fig. 6M and N). […] To elucidate the time course of pain hypersensitivity induced by SNI, the behavioral responses (mechanical testing with von Frey fibers) were measured before surgery (baseline value) in C57 mice (5 female). Then, the mice underwent SNI surgery, which involved ligation and axotomy of the common peroneal and tibial nerves, while sparing the sural nerve. Sham-operated mice served as controls, with their nerves remaining intact. To confirm the presence of pain hypersensitivity in the SNI group, behavioral testing was carried out 14 days after SNI in each animal. Post drugs/saline administration, PWTs were measured at 0, 0.5, 1, 1.5, 2, 2.5, and 3 h for the i.g. route, and at 0, 0.5, 1, 2, 3, and 4 h for the i.m. route.

T1 sequence (Q9Y5Y9 whole entry): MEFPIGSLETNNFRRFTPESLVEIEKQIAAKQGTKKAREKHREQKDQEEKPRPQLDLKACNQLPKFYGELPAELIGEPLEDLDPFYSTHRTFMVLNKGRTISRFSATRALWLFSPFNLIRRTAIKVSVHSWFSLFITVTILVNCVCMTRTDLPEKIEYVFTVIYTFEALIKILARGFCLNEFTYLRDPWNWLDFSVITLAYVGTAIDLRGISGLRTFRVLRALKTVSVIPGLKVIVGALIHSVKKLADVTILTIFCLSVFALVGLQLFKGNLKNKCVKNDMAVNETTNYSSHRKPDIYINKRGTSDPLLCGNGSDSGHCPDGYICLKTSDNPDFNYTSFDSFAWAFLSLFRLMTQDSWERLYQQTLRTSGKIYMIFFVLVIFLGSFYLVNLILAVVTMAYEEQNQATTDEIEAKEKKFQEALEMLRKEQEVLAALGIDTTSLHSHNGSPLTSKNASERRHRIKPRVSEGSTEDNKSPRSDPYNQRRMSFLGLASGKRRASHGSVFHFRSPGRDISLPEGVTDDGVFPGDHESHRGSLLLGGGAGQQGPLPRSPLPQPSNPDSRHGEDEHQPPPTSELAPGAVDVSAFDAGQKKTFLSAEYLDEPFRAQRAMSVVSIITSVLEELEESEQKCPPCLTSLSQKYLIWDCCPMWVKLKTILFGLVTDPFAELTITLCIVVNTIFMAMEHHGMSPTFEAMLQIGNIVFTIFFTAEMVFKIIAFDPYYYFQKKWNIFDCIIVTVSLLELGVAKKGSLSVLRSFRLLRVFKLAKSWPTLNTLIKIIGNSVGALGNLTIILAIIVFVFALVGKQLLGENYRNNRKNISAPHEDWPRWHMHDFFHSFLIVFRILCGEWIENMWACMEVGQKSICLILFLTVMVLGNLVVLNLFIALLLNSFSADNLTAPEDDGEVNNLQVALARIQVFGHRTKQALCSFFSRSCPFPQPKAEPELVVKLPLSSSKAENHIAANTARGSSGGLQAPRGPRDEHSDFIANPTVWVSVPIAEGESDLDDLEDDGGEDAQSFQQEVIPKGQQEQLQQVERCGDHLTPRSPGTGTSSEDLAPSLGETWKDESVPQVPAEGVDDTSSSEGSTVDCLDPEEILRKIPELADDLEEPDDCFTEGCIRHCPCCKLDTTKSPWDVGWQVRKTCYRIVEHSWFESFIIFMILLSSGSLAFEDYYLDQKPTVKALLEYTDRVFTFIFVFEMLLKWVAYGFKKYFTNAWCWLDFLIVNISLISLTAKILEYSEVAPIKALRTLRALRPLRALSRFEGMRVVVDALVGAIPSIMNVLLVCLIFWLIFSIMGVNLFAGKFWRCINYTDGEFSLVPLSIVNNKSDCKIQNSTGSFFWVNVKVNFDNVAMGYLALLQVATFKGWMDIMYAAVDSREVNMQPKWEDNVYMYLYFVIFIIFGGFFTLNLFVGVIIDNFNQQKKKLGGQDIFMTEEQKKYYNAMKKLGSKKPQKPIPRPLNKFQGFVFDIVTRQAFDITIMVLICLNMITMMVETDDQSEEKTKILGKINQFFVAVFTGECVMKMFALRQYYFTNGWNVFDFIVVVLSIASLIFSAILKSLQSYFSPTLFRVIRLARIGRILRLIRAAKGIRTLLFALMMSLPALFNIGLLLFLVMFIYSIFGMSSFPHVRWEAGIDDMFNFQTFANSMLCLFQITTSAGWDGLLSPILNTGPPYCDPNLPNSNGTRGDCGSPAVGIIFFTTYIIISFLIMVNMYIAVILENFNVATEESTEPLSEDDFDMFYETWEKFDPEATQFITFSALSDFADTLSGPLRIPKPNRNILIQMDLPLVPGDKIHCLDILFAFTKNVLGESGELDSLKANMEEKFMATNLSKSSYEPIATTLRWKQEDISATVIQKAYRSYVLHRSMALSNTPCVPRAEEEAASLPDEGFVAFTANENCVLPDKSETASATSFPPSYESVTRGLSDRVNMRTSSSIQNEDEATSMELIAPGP

Cc1ccc(Cn2cc([C@H](CC(=O)NCCN(C)C)c3ccc(F)cc3)c3ccccc32)cc1 [WN2-R]
Time at which PWT declined to the saline group level ([1]; i.g.): 2.5 h | Time of peak PWT after administration ([1]; i.g.): 1.5 h | Paw withdrawal threshold (PWT) at 1.5 h ([1]; i.g.): 1.25 g | Time at which PWT declined to the saline group level ([1]; i.m.): 3 h | Time of peak PWT after administration ([1]; i.m.): 1.5 h | Paw withdrawal threshold (PWT) at 1.5 h ([1]; i.m.): 1.17 g | Inhibitory rate on hNav1.8 (hNav1.8): much lower than that on Nav1.7 | Duration of significant efficacy ([2]; i.g.): at least 2 h | Paw withdrawal threshold (PWTs) ([2]; i.g., 1 h post drug application, 14 days after SNI): 1.72 g | Time after which efficacy converged with the saline group ([2]; i.m.): 3 h | Time of peak efficacy ([2]; i.m.): 1 h | Paw withdrawal threshold (PWTs) at peak efficacy ([2]; i.m., 1 h post drug application, 14 days after SNI): 1.39 g
